The target in one data set is T1, human TLR8 (Homo sapiens, UniProt Q9NR97).
T1 sequence (Q9NR97 27-1041): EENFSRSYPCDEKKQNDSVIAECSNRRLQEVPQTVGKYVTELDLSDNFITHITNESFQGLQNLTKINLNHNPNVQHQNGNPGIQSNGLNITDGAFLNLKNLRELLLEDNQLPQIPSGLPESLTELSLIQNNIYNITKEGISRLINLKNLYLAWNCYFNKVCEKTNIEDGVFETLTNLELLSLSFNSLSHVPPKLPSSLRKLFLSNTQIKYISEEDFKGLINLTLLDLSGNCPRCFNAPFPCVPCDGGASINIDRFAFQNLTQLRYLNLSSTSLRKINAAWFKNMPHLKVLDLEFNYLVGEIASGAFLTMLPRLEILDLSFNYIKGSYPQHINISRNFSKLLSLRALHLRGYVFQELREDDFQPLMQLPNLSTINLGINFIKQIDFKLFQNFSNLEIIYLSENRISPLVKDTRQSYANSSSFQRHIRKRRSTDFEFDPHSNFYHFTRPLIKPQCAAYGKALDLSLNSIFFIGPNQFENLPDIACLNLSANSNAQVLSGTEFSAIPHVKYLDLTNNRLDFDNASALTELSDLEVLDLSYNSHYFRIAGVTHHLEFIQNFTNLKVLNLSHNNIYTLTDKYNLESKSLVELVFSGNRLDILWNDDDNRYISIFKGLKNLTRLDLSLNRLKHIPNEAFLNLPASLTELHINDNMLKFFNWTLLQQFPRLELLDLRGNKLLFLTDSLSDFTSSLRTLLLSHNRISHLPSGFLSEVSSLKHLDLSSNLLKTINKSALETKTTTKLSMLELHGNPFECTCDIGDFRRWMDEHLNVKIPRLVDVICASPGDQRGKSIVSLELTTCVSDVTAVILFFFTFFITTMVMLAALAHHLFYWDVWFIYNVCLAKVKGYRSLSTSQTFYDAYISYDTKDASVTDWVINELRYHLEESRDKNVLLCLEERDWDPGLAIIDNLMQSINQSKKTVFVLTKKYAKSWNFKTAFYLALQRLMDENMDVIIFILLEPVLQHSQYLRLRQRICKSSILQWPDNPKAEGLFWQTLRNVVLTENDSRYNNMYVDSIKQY
As to the kind of experiment: HEK293-Blue-hTLR-8 cells assay (SEAP reporter, R848 stimulation). To be noted: HEK293-Blue-hTLR8 cells, R848, 20 hrs incubation; read-out: HEK/hTLR8 IC50. The format is cell-based. As to the method:
The following tests were carried out in order to determine the activity of the compounds of formula (I), (Ia) or (Ib) in HEK293-Blue-hTLR-7/8/9 cells assay.
HEK293-Blue-hTLR-8 Cells Assay:
A stable HEK293-Blue-hTLR-8 cell line was purchased from InvivoGen (Cat.#: hkb-htlr8, San Diego, Calif., USA). These cells were originally designed for studying the stimulation of human TLR8 by monitoring the activation of NF-κB. A SEAP (secreted embryonic alkaline phosphatase) reporter gene was placed under the control of the IFN-β minimal promoter fused to five NF-κB and AP-1-binding sites. The SEAP was induced by activating NF-κB and AP-1 via stimulating HEK-Blue hTLR8 cells with TLR8 ligands. Therefore the reporter expression was declined by TLR8 antagonist under the stimulation of a ligand, such as R848, for incubation of 20 hrs. The cell culture supernatant SEAP reporter activity was determined using QUANTI-Blue™ kit (Cat.#: rep-qb1, Invivogen, San Diego, Ca, USA) at a wavelength of 640 nm, a detection medium that turns purple or blue in the presence of alkaline phosphatase.
HEK293-Blue-hTLR8 cells were incubated at a density of 250,000-450,000 cells/mL in a volume of 170 μL in a 96-well plate in Dulbecco's Modified Eagle's medium (DMEM) containing 4.5 g/L glucose, 50 U/mL penicillin, […], […], 2 mM L-glutamine, 10% (v/v) heat-inactivated fetal bovine serum with addition of 20 μL test compound in a serial dilution in the presence of final DMSO at 1% and 10 μL of 60 uM R848 in above DMEM, perform incubation under 37° C. in a CO2 incubator for 20 hrs. Then 20 μL of the supernatant from each well was incubated with 180 μL Quanti-blue substrate solution at 37° C. for 2 hrs and the absorbance was read at 620˜655 nm using a spectrophotometer. The signaling pathway that TLR8 activation leads to downstream NF-κB activation has been widely accepted, and therefore similar reporter assay was modified for evaluating TLR8 antagonist.

Data set [1] in a line: Human microsomal stability assay. To be noted: human liver microsomes, 1 μM test compound, 0.5 mg/mL protein, 37° C.; low <7.0, medium 7.0-16.2, high 16.2-23.2 mL/min/kg. The format is in vitro ADME. As to the method:
Human Microsomal Stability Assay
Human liver microsomes (Cat.NO.: 452117, Corning, USA) were preincubated with test compound for 10 minutes at 37° C. in 100 mM potassium phosphate buffer, pH 7.4. The reactions were initiated by adding NADPH regenerating system. The final incubation mixtures contained 1 μM test compound, 0.5 mg/mL liver microsomal protein, 1 mM MgCl2, 1 mM NADP, 1 unit/mL isocitric dehydrogenase and 6 mM isocitric acid in 100 mM potassium phosphate buffer, pH 7.4. After incubation times of 0, 3, 6, 9, 15 and 30 minutes at 37° C., 300 μL of cold ACN (including internal standard) was added to 100 μL incubation mixture to terminate the reaction. Following precipitation and centrifugation, 100 uL supernatant will be taken out and added 300 uL water. The amount of compound remaining in the samples was determined by LC-MS/MS. Controls of no NADPH regenerating system at zero and 30 minutes were also prepared and analyzed. The results were categorized as: low (<7.0 mL/min/kg), medium (7.0-16.2 mL/min/kg) and high (16.2-23.2 mL/min/kg).
Background: Microsomes from liver hold many membrane-bound enzymes, among them those of drug oxidation.

Data on two compounds can be found in patent US20230002375A1, “HYDROPYRAZINO[1,2-B]ISOQUINOLINE COMPOUNDS FOR THE TREATMENT OF AUTOIMMUNE DISEASE” (Hoffmann-La Roche Inc., priority 2019, published 2023).

Consider `C[C@@H]1CN(c2ccc(C#N)c3ncccc23)C[C@@H]2Cc3cc(N4CCN(C(=O)[C@]5(C)CCCN5)CC4)ccc3CN21` [Example 14, 5-[(4R,11aS)-4-methyl-9-[4-[(2S)-2-methylpyrrolidine-2-carbonyl]piperazin-1-yl]-1,3,4,6,11,11a-hexahydropyrazino[1,2-b]isoquinolin-2-yl]quinoline-8-carbonitrile], for which the IC50 at human TLR8 is 1.4 nM. Moreover, the “CL(h)” value in data set [1] turned out to be 8.7 mL/min/kg.
Regarding `C[C@@H]1CN(c2ccc(C#N)c3ncccc23)C[C@@H]2Cc3cc(N4CC(N)CC4=O)ccc3CN21` (stereo partly drawn) [Example 16, 5-[(4R,11aS)-9-(4-amino-2-oxo-pyrrolidin-1-yl)-4-methyl-1,3,4,6,11,11a-hexahydropyrazino[1,2-b]isoquinolin-2-yl]quinoline-8-carbonitrile], at human TLR8, the IC50 came to 5.3 nM. Further, the “CL(h)” value in data set [1] amounted to 6.8 mL/min/kg.
